These results are taken from publication PMC5402262, “Synthesis and anti-obesity effects in vivo of Crotadihydrofuran C as a novel PPARγ antagonist from Crotalaria albida” (Scientific Reports, 2017).

Usually Ki stands for a dissociation constant, usually derived from enzyme kinetics or from competition with a known ligand. Low values mean tighter binding, high ones weaker binding.

This experiment deals with T1, PPARγ (Homo sapiens, UniProt P37231).
T1 construct: gene PPARG
T1 sequence (P37231 231-505 limits assumed): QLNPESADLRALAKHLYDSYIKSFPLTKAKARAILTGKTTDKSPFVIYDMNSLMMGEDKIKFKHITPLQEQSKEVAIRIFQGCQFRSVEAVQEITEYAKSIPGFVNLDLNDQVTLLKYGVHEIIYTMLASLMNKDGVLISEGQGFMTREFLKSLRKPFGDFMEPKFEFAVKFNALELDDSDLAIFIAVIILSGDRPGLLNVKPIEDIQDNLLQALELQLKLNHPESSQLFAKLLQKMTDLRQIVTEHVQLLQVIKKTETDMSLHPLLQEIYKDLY
Kind of experiment: LanthaScreen TR-FRET competitive binding assay. (In TR-FRET formats the signal depends on donor and acceptor labels being close together.)

In turn, `C=C(C)[C@@H]1Cc2c(ccc(-c3coc4cc(O)ccc4c3=O)c2O)O1` [compound 17, 7, 2′-Dihydroxy-2′′ S-isopropenyl dihydrofuran [6′′, 7′′ : 3′, 4′]-isoflavone] yielded a Ki of 1570 nM. This lies in the single-digit micromolar range.
